In patent publication US10227344B2, “CK2 inhibitors, compositions and methods thereof” (Polaris Pharmaceuticals, Inc., priority 2016, dated 2019) one finds Ki data, which are given here for 24 compounds.

Where a name gives a salt, the structure may show the parent alone. Bounds are passed on as bounds.

This test has as its target purified CK2α enzyme (Homo sapiens, UniProt P68400). The experiment in a line: CK2 Protein Kinase Inhibition Assay (coupled PK/LDH assay). Format: biochemical. To be noted: CK2 enzyme 25 nM, 100 μM ATP, 37° C., Morrison equation. The method, then:
A coupled PK (pyruvate kinase)/LDH (lactate dehydrogenase) assay was used to measure compounds' ability to inhibit purified CK2α enzyme.
The ADP product of kinase CK2a is the cofactor for PK. Phospho(enol)pyruvate (PEP) PEP is metabolized by pyruvate kinase to yield pyruvate, which is the substrate for LDH.
Serially diluted compounds were pre-incubated for 10 min at 37° C. with and 1.5 mM […] peptide substrate, 6 U/ml PK and 10 U/ml LDH (purchased from Sigma-Aldrich), 100 μM ATP, 1.2 mM NADH, 4 mM PEP in the reaction buffer (50 mM Tris (pH 8.25), 0.1 M NaCl, 10 mM magnesium acetate). The reaction was initiated by the addition of an equal volume of purified CK2 enzyme (final concentration 25 nM) diluted in the reaction buffer. Absorbance at 340 nm was measured overtime (for 30 min) at 37° C.; as NADH was converted to NAD+ the absorbance decreases. Absorbance decrease rate (per min) was plotted against the compound concentration and Ki is determined by GraphPad Prism using Morrison equation. All data points were performed in triplicate and each compound was tested in at least two separate experiments.
To this end, K, values of less than 2.5 nM are labelled as “+++”, from 2.5 nM to 10 nM are labelled as “++”, and greater than 10 nM are labelled as “+”.

purified CK2α enzyme, sequence (P68400 whole entry): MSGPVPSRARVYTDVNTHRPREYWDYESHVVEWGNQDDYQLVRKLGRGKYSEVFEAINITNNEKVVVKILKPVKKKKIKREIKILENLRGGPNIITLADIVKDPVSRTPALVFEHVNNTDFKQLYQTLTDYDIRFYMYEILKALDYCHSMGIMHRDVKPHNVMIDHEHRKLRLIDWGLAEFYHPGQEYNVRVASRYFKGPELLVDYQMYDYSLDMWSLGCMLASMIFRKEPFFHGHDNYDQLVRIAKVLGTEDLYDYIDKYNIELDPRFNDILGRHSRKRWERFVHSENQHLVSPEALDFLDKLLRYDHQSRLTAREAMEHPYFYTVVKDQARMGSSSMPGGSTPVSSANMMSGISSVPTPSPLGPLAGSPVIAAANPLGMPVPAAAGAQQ

The compound `C[S+]([O-])Cc1cc(Nc2cc(NC3CC3)n3ncc(C#N)c3n2)ccc1N1CCC[C@@H](N)C1` (stereo partly drawn) [Example 24, 5-((4-((R)-3-Aminopiperidin-1-yl)-3-(((R,S)-methylsulfinyl)methyl)phenyl)amino)-7-(cyclopropylamino)pyrazolo[1,5-a]pyrimidine-3-carbonitrile mono trifluoroacetic acid salt] came in with a Ki of less than 2.5 nM.
Under `CN(CCN)c1ccc(Nc2nc(NC3CC3)c3ncc(C#N)n3n2)cc1C[S+](C)[O-]` (racemic) [Example 49, (±)-2-((4-((2-aminoethyl)(methyl)amino)-3-((methylsulfinyl)methyl)phenyl)amino)-4-(cyclopropylamino)imidazo[2,1-f][1,2,4]triazine-7-carbonitrile mono trifluoroacetic acid salt] stands 2.5 to 10 nM; under `CS(=O)(=O)Cc1cc(Nc2cc(NC3CC3)n3ncc(C#N)c3n2)ccc1N1CC(CN)C1` [Example 43, 5-((4-(3-(Aminomethyl)azetidin-1-yl)-3-((methylsulfonyl)methyl)phenyl)amino)-7-(cyclopropylamino)pyrazolo[1,5-a]pyrimidine-3-carbonitrile], less than 2.5 nM; under `CS(=N)(=O)Cc1cc(Nc2cc(NC3CC3)n3ncc(C#N)c3n2)ccc1Cl` (racemic) [Example 12, (±)-5-((4-Chloro-3-((S-methylsulfonimidoyl)methyl)phenyl)amino)-7-(cyclopropylamino)pyrazolo[1,5-a]pyrimidine-3-carbonitrile], 2.5 to 10 nM.
Under `CS(=O)(=O)Cc1cc(Nc2cc(NC3CC3)n3ncc(C#N)c3n2)ccc1C1(CN)CC1` [Example 39, 5-((4-(1-(Aminomethyl)cyclopropyl)-3-((methylsulfonyl)methyl)phenyl)amino)-7-(cyclopropylamino)pyrazolo[1,5-a]pyrimidine-3-carbonitrile mono trifluoroacetic acid salt] stands less than 2.5 nM; under `C[S+]([O-])Cc1cc(Nc2cc(Nc3cccnc3)n3ncc(C#N)c3n2)ccc1C1CC1` (racemic) [Example 55, (±)-5-((4-Cyclopropyl-3-((methylsulfinyl)methyl)phenyl)amino)-7-(pyridin-3-ylamino)pyrazolo[1,5-a]pyrimidine-3-carbonitrile], less than 2.5 nM; under `CN(CCN)c1ccc(Nc2nc(NC3CC3)c3ncc(C#N)n3n2)cc1CS(C)(=O)=O` [Example 50, 2-((4-((2-aminoethyl)(methyl)amino)-3-((methylsulfonyl)methyl)phenyl)amino)-4-(cyclopropylamino)imidazo[2,1-f][1,2,4]triazine-7-carbonitrile mono trifluoroacetic acid salt], 2.5 to 10 nM.
Under `C[S+]([O-])Cc1cc(Nc2cc(NC3CC3)n3ncc(C#N)c3n2)ccc1N1CC[C@H](N)C1` (stereo partly drawn) [Example 23, 5-((4-((S)-3-Aminopyrrolidin-1-yl)-3-(((R,S)-methylsulfinyl)methyl)phenyl)amino)-7-(cyclopropylamino)pyrazolo[1,5-a]pyrimidine-3-carbonitrile mono trifluoroacetic acid salt] stands less than 2.5 nM; under `CN(CCN)c1ccc(Nc2cc(NC3CC3)c3ncc(C#N)n3n2)cc1C[S+](C)[O-]` (racemic) [Example 47, (±)-6-((4-((2-Aminoethyl)(methyl)amino)-3-((methylsulfinyl)methyl)phenyl)amino)-8-(cyclopropylamino)imidazo[1,2-b]pyridazine-3-carbonitrile mono trifluoroacetic acid salt], 2.5 to 10 nM; under `CC(N)c1ccc(Nc2cc(NC3CC3)n3ncc(C#N)c3n2)cc1C[S+](C)[O-]` (racemic) [Example 58, (±)-5-((4-((R,S)-1-Aminoethyl)-3-((methylsulfinyl)methyl)phenyl)amino)-7-(cyclopropylamino)pyrazolo[1,5-a]pyrimidine-3-carbonitrile mono trifluoroacetic acid salt], 2.5 to 10 nM.
Consider `C/C(=C\CN)c1ccc(Nc2cc(NC3CC3)n3ncc(C#N)c3n2)cc1C[S+](C)[O-]` (racemic) [Example 60, (±)-(E)-5-((4-(4-aminobut-2-en-2-yl)-3-((methylsulfinyl)methyl)phenyl)amino)-7-(cyclopropylamino)pyrazolo[1,5-a]pyrimidine-3-carbonitrile mono trifluoroacetic acid salt], for which the Ki is less than 2.5 nM.
Under `CN(CCN)c1ccc(Nc2cc(NC3CC3)c3ncc(C#N)n3n2)cc1CS(C)(=O)=O` [Example 48, 6-((4-((2-aminoethyl)(methyl)amino)-3-((methylsulfonyl)methyl)phenyl)amino)-8-(cyclopropylamino)imidazo[1,2-b]pyridazine-3-carbonitrile mono trifluoroacetic acid salt] stands 2.5 to 10 nM.
Under `C[S+]([O-])Cc1cc(Nc2cc(NC3CC3)n3ncc(C#N)c3n2)ccc1F` (racemic) [Example 5, (±)-7-(Cyclopropylamino)-5-((4-fluoro-3-((methylsulfinyl)methyl)phenyl)amino)pyrazolo[1,5-a]pyrimidine-3-carbonitrile] stands 2.5 to 10 nM.
As for `C[S+]([O-])Cc1cc(Nc2cc(NC3CC3)n3ncc(C#N)c3n2)ccc1C1CC1` (racemic) [Example 13, (±)-5-((4-Cyclopropyl-3-((methylsulfinyl)methyl)phenyl)amino)-7-(cyclopropylamino)pyrazolo[1,5-a]pyrimidine-3-carbonitrile], the figure is less than 2.5 nM; as for `C[S+]([O-])Cc1cc(Nc2cc(NC3CC3)n3ncc(C#N)c3n2)ccc1N1CC(O)C1` (racemic) [Example 27, (±)-7-(cyclopropylamino)-5-((4-(3-hydroxyazetidin-1-yl)-3-((methylsulfinyl)methyl)phenyl)amino)pyrazolo[1,5-a]pyrimidine-3-carbonitrile], less than 2.5 nM; as for `CN(C)c1ccc(Nc2cc(NC3CC3)n3ncc(C#N)c3n2)cc1CS(C)(=O)=O` [Example 34, 7-(Cyclopropylamino)-5-((4-(dimethylamino)-3-((methylsulfonyl)methyl)phenyl)amino)pyrazolo[1,5-a]pyrimidine-3-carbonitrile], less than 2.5 nM.
`CN(CCN)c1ccc(Nc2nc(NC3CC3)n3ncc(C#N)c3n2)cc1CS(C)(=O)=O` [Example 52, 2-((4-((2-aminoethyl)(methyl)amino)-3-((methylsulfonyl)methyl)phenyl)amino)-4-(cyclopropylamino)pyrazolo[1,5-a][1,3,5]triazine-8-carbonitrile mono trifluoroacetic acid salt] gave a Ki of 2.5 to 10 nM.
As for `C[S+]([O-])Cc1cc(Nc2cc(NC3CC3)n3ncc(C#N)c3n2)ccc1CN` (racemic) [Example 15, (±)-5-((4-(Aminomethyl)-3-((methylsulfinyl)methyl)phenyl)amino)-7-(cyclopropylamino)pyrazolo[1,5-a]pyrimidine-3-carbonitrile mono trifluoroacetic acid salt], the figure is 2.5 to 10 nM; as for `C[S+]([O-])Cc1cc(Nc2cc(Nc3ccc(N)cn3)n3ncc(C#N)c3n2)ccc1C1CC1` (racemic) [Example 57, (±)-7-((5-Aminopyridin-2-yl)amino)-5-((4-cyclopropyl-3-((methylsulfinyl)methyl)phenyl)amino)pyrazolo[1,5-a]pyrimidine-3-carbonitrile], less than 2.5 nM.
Under `C[S+]([O-])Cc1cc(Nc2cc(NC3CC3)n3ncc(C#N)c3n2)ccc1Cl` (racemic) [Example 1, (±)-5-((4-Chloro-3-((methylsulfinyl)methyl)phenyl)amino)-7-(cyclopropylamino)pyrazolo[1,5-a]pyrimidine-3-carbonitrile] stands less than 2.5 nM; under `C[S+]([O-])Cc1cc(Nc2cc(NC3CC3)n3ncc(C#N)c3n2)ccc1N1CCC[C@H](N)C1` (stereo partly drawn) [Example 25, 5-((4-((S)-3-Aminopiperidin-1-yl)-3-(((R,S)-methylsulfinyl)methyl)phenyl)amino)-7-(cyclopropylamino)pyrazolo[1,5-a]pyrimidine-3-carbonitrile mono trifluoroacetic acid salt], less than 2.5 nM; under `CN(CC(C)(C)N)c1ccc(Nc2cc(NC3CC3)n3ncc(C#N)c3n2)cc1C[S+](C)[O-]` (racemic) [Example 67, (±)-5-((4-((2-Amino-2-methylpropyl)(methyl)amino)-3-((methylsulfinyl)methyl)phenyl)amino)-7-(cyclopropylamino)pyrazolo[1,5-a]pyrimidine-3-carbonitrile mono trifluoroacetic acid salt], less than 2.5 nM.
As for `C[S+]([O-])Cc1cc(Nc2cc(NC3CC3)n3ncc(C#N)c3n2)ccc1C1CCNC1` (racemic) [Example 63, (±)-7-(Cyclopropylamino)-5-((3-((methylsulfinyl)methyl)-4-((R,S)-pyrrolidin-3-yl)phenyl)amino)pyrazolo[1,5-a]pyrimidine-3-carbonitrile mono trifluoroacetic acid salt], the figure is 2.5 to 10 nM.
`C[S+]([O-])Cc1cc(Nc2cc(NC3CC3)n3ncc(C#N)c3n2)ccc1N1CC(N)C1` (racemic) [Example 40, (±)-5-((4-(3-Aminoazetidin-1-yl)-3-((methylsulfinyl)methyl)phenyl)amino)-7-(cyclopropylamino)pyrazolo[1,5-a]pyrimidine-3-carbonitrile]: the Ki is less than 2.5 nM.
